Assays:
Carbonic anhydrase = molecular target: T1, Carbonic anhydrase (Candida albicans (strain SC5314 / ATCC MYA-2876) (Yeast), UniProt Q5AJ71)
T1 sequence (Q5AJ71 whole entry): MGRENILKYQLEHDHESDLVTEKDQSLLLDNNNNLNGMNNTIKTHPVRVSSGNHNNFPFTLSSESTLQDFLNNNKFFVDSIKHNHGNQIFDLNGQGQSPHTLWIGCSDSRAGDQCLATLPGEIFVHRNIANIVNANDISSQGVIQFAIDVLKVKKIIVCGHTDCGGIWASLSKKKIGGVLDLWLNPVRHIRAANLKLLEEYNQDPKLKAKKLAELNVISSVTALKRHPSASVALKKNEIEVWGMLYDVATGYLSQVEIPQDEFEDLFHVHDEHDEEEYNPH

Carbonic anhydrase 1 = Carbonic anhydrase 1 (Homo sapiens, UniProt P00915)
Sequence of Carbonic anhydrase 1 (P00915 whole entry): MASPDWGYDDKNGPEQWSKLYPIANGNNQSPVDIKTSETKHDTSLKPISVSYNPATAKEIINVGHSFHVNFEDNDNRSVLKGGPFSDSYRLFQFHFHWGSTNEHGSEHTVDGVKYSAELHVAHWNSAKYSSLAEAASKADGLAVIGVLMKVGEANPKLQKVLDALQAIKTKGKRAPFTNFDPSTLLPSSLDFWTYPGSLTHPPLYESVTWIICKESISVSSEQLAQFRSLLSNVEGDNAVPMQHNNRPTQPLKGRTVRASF

Carbonic anhydrase 2 = Carbonic anhydrase 2 (Homo sapiens, UniProt P00918)

Compound	Ki (Carbonic anhydrase)	Ki (Carbonic anhydrase 1)	Ki (Carbonic anhydrase 2)
OB(O)c1ccc2ccccc2c1	9.3 µM		
OB(O)c1ccc(Br)cc1	15.9 µM	11.7 µM	7 µM
COc1ccc(B(O)O)cc1	15.6 µM	10.9 µM	7.9 µM
OB(O)/C=C/c1ccc(-c2ccccc2)cc1	42.3 µM		373 µM
OB(O)c1ccc(Oc2ccccc2)cc1	8.6 µM	6 µM	11.5 µM
OB(O)/C=C/Cc1ccccc1	633 µM	8.6 µM	18.1 µM
Cc1ccc(/C=C/B(O)O)cc1	460 µM		617 µM
CCCCc1ccc(B(O)O)cc1	8 µM		
OB(O)/C=C/c1ccc(-c2ccc(C(F)(F)F)cc2)cc1	5210 µM		
OB(O)c1ccc(-c2ccccc2)cc1 [BIPHENYLBORONIC ACID]	7.8 µM		
OB(O)c1ccccc1 [PHENYLBORONIC ACID]		1560 µM	1050 µM
OB(O)/C=C/c1ccccc1 [STYRYLBORONIC ACID]	779 µM		534 µM
Cc1ccc(B(O)O)cc1 [TOLYL BORONIC ACID]	9 µM	278 µM	10.8 µM

Reference: ChEMBL document CHEMBL1151882, “Carbonic anhydrase inhibitors. Inhibition of the fungal beta-carbonic anhydrases from Candida albicans and Cryptococcus neoformans with boronic acids” (Bioorg Med Chem Lett, 2009)
